# According to patent publication US6613961B1, “Plants capable of metabolizing drugs and use thereof” (priority 1998, dated 2003):
# Key:
# [1] = molecular target: T1, microsomal fraction of S1974 (human CYP2C19) (Homo sapiens, UniProt P33261); test: 7-ethoxyresorufin O-deethylation activity using a microsomal fraction; assay type: biochemical
# T1 construct: expressed in transfected cells; host or cells: transgenic potato (Solanum tuberosum cv. MayQueen) line S1974, plasmid pUHC19, microsomal fraction
# Procedure: (§1) A reaction was initiated by adding 7-ethoxyresorufin to the concentration of 10 μM to a reaction solution containing 0.1 M potassium phosphate buffer (pH 7.4), 3 mM NADPH, and 1 mg/ml microsomal fractions at the final concentrations. The mixture was incubated at 37° C. for 30 min, ice-cooled acetone was added thereto, and allowed to stand on ice for 10 min. The supernatant was measured using the fluorometer (excitation wavelength of 550 nm, and emission of 586 nm).
# (§2) Inhibition of activity by addition of carbon monoxide and absence of NADPH indicated P450-dependency. On the other hand, an increased activity was not observed in S1972 or S1974. […] In the table, “EROD activity” of (a) indicates 7-ethoxyresorufin O-deethylase activity (pmol/min/mg of protein) and means±standard deviations in three independent experiments. In (b), the values indicate the activities in the presence of carbon monoxide. In (c), the values indicate the activities in the absence of NADPH.
# [2] = molecular target: T2, microsomal fraction of S1965 (human CYP1A1) (Homo sapiens, UniProt P04798); test: as above; assay type: biochemical
# T2 construct: expressed in transfected cells; host or cells: transgenic potato (Solanum tuberosum cv. MayQueen) line S1965, plasmid pUHA1, microsomal fraction
# T2 sequence (P04798 1-512): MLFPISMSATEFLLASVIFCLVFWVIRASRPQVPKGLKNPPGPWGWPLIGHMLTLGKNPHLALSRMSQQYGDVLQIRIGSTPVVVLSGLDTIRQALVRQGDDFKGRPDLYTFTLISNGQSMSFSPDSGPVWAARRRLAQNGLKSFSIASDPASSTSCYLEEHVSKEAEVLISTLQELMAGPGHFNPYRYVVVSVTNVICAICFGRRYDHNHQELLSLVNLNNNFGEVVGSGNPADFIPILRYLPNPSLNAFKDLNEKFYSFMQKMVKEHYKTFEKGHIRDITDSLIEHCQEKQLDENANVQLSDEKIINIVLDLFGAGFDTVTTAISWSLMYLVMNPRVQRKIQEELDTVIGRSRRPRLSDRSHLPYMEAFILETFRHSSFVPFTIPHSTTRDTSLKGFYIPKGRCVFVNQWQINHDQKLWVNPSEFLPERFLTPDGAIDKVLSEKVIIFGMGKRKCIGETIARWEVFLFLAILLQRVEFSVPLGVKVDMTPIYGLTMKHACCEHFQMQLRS
# Procedure: as §1, §2
# [3] = molecular target: T3, microsomal fraction of T1977 (human CYP1A1, CYP2B6, CYP2C19) (Homo sapiens, UniProt P04798); test: as above; assay type: biochemical
# T3 construct: expressed in transfected cells; host or cells: transgenic potato (Solanum tuberosum cv. MayQueen) line T1977, plasmid pIKBAC, microsomal fraction
# T3 sequence (P04798 1-512): T2 sequence (P04798 1-512)
# Procedure: as §1, §2
# [4] = molecular target: T4, microsomal fraction of S1972 (human CYP2B6) (Homo sapiens, UniProt P20813); test: as above; assay type: biochemical
# T4 construct: expressed in transfected cells; host or cells: transgenic potato (Solanum tuberosum cv. MayQueen) line S1972, plasmid pUHB6, microsomal fraction
# Procedure: as §1, §2
# [5] = test system: microsomal fraction of Control plants; test: as above; assay type: biochemical, Solanum tuberosum cv. MayQueen
# Procedure: as §1, §2
# Human CYP2C9 = Human CYP2C9 (Homo sapiens, UniProt P11712); test: Herbicide metabolism by human P450 molecular species (microsomal fraction); assay type: in vitro ADME
# Human CYP1A1 = molecular target: T5, Human CYP1A1 (Homo sapiens, UniProt P04798); test: Metabolism of herbicides in microsomes of recombinant yeast expressing human P450; assay type: in vitro ADME
# T5 construct: purchased Sumitomo Chemical; host or cells: recombinant yeast, microsomal fraction
# T5 sequence (P04798 1-512): T2 sequence (P04798 1-512)
# [6] = test system: leaves of potato individuals expressing three types of P450; test: 7-ethoxycoumarin O-deethylation activity in leaves of kanamycin-resistant individuals; assay type: in vivo, Solanum tuberosum cv. MayQueen; conditions: leaves cultured with 7-ethoxycoumarin for 3 days
# Procedure: Leaves of the kanamycin-resistant individuals (0.1 g) were cultured in 5 ml of a liquid medium containing 2% sucrose with 100 μl of 20 mM 7-ethoxycoumarin for 3 days. Then, the leaves were crushed in 500 μl of 0.1 M potassium phosphate buffer (pH 7.4), and chloroform was added to the supernatant and mixed. To the chloroform layer, 0.01 N NaOH/0.1 M NaCl was added, and measurement was performed at excitation wavelength of 366 nm and at emission of 452 nm with the Hitachi fluorometer. […] Each of CYP1A1-expressing individual S1965, and CYP2B6-expressing individual S1972 was selected in the same manner.
# [7] = test system: seeds of Nipponbare into which the gene was not introduced; test: Germination assay for herbicide resistance, non-introduced rice seeds; assay type: in vivo, rice (Nipponbare); conditions: […] metolachlor, […] alachlor, 15 μM triflurarin; after about 4 to 7 days
# Human CYP2B6 = molecular target: T6, Human CYP2B6 (Homo sapiens, UniProt P20813); test: Metabolism of herbicides in microsomes of recombinant yeast expressing human P450
# T6 sequence (P20813 1-491): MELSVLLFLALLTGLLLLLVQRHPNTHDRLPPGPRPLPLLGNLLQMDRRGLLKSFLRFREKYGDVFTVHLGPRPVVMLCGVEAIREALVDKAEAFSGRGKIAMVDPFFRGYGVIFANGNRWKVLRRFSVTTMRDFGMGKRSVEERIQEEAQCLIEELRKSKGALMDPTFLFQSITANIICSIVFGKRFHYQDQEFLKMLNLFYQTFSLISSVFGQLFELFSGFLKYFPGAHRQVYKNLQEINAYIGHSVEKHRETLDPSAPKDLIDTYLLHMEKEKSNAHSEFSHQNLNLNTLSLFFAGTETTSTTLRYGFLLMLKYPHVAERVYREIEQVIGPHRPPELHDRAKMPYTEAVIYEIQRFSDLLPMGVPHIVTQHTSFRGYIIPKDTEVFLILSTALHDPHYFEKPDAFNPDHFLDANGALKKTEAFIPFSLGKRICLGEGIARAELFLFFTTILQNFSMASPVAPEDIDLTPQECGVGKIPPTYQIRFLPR
# Procedure: The reaction was carried out in a range of temperature suitable for an organism from which a p450 molecular species is derived (for example, 37° C. for human P450), by mixing with air while vigorously shaking, within a period during which an enzyme is not inactivated (for example, for 10 to 60 min).
# From the height of the peak, a metabolized amount can be obtained.
# To 0.1 M potassium phosphate buffer (pH 7.4), the microsomal fraction prepared from each of yeast strains respectively expressing one of 11 human P450 molecular species (obtained from Sumitomo Chemical) was added so that the amount of the p450 would be 25 pmol. Furthermore, 0.5 mM NADPH, 5 mM glucose 6 phosphate, 1 U/ml glucose 6 phosphate dehydrogenase, and 0.1 mM each of the following herbicides (those available in the market were used) were added at the final concentrations thereto to make the total volume of 100 μl. The reaction mixture was shaken at 37° C. for 60 min, and an organic solvent was added thereto for the extraction. The extract was applied to the high performance liquid chromatography, and the metabolite was measured.
# S1974 (human CYP2C19) = test: Herbicide tolerance assay for transformants; assay type: in vivo, Solanum tuberosum cv. MayQueen; conditions: acetochlor 20 μmol, atrazine 1.2 μmol, metolachlor 30 μmol dispersed
# Excerpt: Then, herbicides were dispersed.
# non-transformed MayQueen = test: Assay for herbicide resistance, non-transformed potato; assay type: in vivo; set-up: key: 1: alomost dead; 2: severely inhibited growth; 3: slightly inferior growth; 4: the same growth as that when herbicide was not dispersed; conditions: 14 days after dispersal
# Excerpt: 4, the same growth as that when herbicide was not dispersed.
# [8] = 10 μM 7-ethoxyresorufin, means±standard deviations in three independent experiments
# T1 sequence (P33261 whole entry): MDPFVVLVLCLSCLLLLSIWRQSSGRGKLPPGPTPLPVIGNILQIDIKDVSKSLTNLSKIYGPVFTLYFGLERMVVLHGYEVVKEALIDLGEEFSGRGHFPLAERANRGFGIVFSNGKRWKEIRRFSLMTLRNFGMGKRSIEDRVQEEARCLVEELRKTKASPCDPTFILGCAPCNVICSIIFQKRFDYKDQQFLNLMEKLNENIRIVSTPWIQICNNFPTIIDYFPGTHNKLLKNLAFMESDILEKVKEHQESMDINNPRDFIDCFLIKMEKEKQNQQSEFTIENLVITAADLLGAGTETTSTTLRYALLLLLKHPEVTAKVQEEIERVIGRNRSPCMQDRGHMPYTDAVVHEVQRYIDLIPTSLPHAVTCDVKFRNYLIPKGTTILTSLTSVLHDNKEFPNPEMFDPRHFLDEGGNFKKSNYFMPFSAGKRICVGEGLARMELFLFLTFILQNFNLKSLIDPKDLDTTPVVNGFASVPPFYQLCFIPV
# Sequence of Human CYP2C9 (P11712 whole entry): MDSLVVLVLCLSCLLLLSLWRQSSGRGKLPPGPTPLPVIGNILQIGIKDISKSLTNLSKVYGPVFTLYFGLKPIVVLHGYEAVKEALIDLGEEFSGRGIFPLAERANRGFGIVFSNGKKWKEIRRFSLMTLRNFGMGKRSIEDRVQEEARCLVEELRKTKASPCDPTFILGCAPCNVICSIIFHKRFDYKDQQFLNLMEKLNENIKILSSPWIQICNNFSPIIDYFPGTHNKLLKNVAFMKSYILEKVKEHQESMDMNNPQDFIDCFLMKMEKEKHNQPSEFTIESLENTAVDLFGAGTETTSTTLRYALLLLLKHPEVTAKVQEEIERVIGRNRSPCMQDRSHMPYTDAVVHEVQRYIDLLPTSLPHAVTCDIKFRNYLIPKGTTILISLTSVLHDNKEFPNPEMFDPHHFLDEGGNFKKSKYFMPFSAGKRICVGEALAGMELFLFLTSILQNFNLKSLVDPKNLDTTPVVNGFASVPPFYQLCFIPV
structure (smiles),measurement,setting,value
CCOc1ccc2nc3ccc(=O)cc-3oc2c1 [7-ethoxyresorufin],increased 7-ethoxyresorufin O-deethylation activity,[1],not observed
same,EROD activity,[1]; [8],0.14 ± 0.03 pmol/min/mg of protein
same,"7-ethoxyresorufin O-deethylation activity, times higher than the controls",[2],~53 times
same,-NADPH (Inhibition rate),[2],99%
same,CO (Inhibition rate),[2],77%
same,EROD activity,[2]; [8],5.78 ± 0.51 pmol/min/mg of protein
same,EROD activity in the absence of NADPH,[2]; -NADPH,0.06 pmol/min/mg of protein
same,EROD activity in the presence of carbon monoxide,[2]; CO,1.33 pmol/min/mg of protein
same,"7-ethoxyresorufin O-deethylation activity, times higher than the controls",[3],about 27 times
same,-NADPH (Inhibition rate),[3],99%
same,CO (Inhibition rate),[3],76%
same,EROD activity,[3]; [8],2.92 ± 0.72 pmol/min/mg of protein
same,EROD activity in the absence of NADPH,[3]; -NADPH,0.02 pmol/min/mg of protein
same,EROD activity in the presence of carbon monoxide,[3]; CO,0.69 pmol/min/mg of protein
same,increased 7-ethoxyresorufin O-deethylation activity,[4],not observed
same,EROD activity,[4]; [8],0.12 ± 0.03 pmol/min/mg of protein
same,-NADPH (Inhibition rate),[5],82%
same,CO (Inhibition rate),[5],45%
same,EROD activity,[5]; [8],0.11 ± 0.01 pmol/min/mg of protein
same,EROD activity in the absence of NADPH,[5]; -NADPH,0.02 pmol/min/mg of protein
same,EROD activity in the presence of carbon monoxide,[5]; CO,0.06 pmol/min/mg of protein
COc1cc(OC)nc(NC(=O)NS(=O)(=O)c2c(Cl)nc3ccccn23)n1 [imazosulfuron],metabolic reaction confirmed,Human CYP2C9,ring hydroxylation
CNC(=O)N(C)c1nc2ccccc2s1 [methabenzthiazuron],metabolic reaction confirmed,Human CYP1A1,"N-demethylation, ring hydroxylation"
CCOc1ccc2ccc(=O)oc2c1 [7-ethoxycoumarin],7-ethoxycoumarin O-deethylation activity,[6]; individual T1977,higher activity than the control
same,7-ethoxycoumarin O-deethylation activity,[6]; individual T1979,higher activity than the control
CCc1cccc(CC)c1N(COC)C(=O)CCl [alachlor],Germination of seeds,[7],inhibited
same,metabolic reaction confirmed,Human CYP2B6,"O-deethylation, O-demethylation"
CO/N=C(/C)c1cccc(Oc2nc(OC)cc(OC)n2)c1C(=O)OC [pyriminobac-methyl],metabolic reaction confirmed,Human CYP1A1,hydroxylation
CCS(=O)(=O)Oc1ccc2c(c1)C(C)(C)CO2 [benfuresate],metabolic reaction confirmed,Human CYP2B6,"O-deethylation, hydroxylation"
CCCN(CCC)c1c([N+](=O)[O-])cc(C(F)(F)F)cc1[N+](=O)[O-] [triflurarin],Germination of seeds,[7],inhibited
same,metabolic reaction confirmed,Human CYP2B6,O-demethylation
CCNc1nc(Cl)nc(NC(C)C)n1 [atrazine],metabolic reaction confirmed,Human CYP1A1,"N-deethylation, N-deisopropylation"
same,resistance of the transformant to the herbicide,S1974 (human CYP2C19),strong resistance
CNc1cnn(-c2cccc(C(F)(F)F)c2)c(=O)c1Cl [norflurazon],metabolic reaction confirmed,Human CYP1A1,N-demethylation
CCOCN(C(=O)CCl)c1c(C)cccc1CC [acetochlor],Resistance to herbicide,non-transformed MayQueen; Acetochlor 5 μmol/pot,2
same,Resistance to herbicide,non-transformed MayQueen; Acetochlor 10 μmol/pot,2
same,Resistance to herbicide,non-transformed MayQueen; Acetochlor 15 μmol/pot,1
same,resistance of the transformant to the herbicide,S1974 (human CYP2C19),strong resistance
Cc1ccc(NC(=O)N(C)C)cc1Cl [chlorotoluron],metabolic reaction confirmed,Human CYP1A1,"N-demethylation, ring hydroxylation"
CCOC1Oc2ccc(OS(C)(=O)=O)cc2C1(C)C (stereo not shown) [ethofumesate],metabolic reaction confirmed,Human CYP2B6,"O-deethylation, hydroxylation"
